Measurements published in ChEMBL document CHEMBL3877251, “Synthesis and biological evaluation of a series of N-alkylated imidazole alkanoic acids as mGAT3 selective GABA uptake inhibitors” (Eur J Med Chem, 2016).

Tests used:
Assay type in all cases: cell-based
[1] = target: T1, GABA transporter 3 (Mus musculus) (UniProt P31649); assay: Inhibition of mouse GAT3 expressed in HEK293 cells assessed as decrease in [3H]GABA uptake at 100 uM preincubated for 25 mins followed by [3H]GABA addition measured after 4 mins by liquid scintillation counter method
T1 sequence (whole entry): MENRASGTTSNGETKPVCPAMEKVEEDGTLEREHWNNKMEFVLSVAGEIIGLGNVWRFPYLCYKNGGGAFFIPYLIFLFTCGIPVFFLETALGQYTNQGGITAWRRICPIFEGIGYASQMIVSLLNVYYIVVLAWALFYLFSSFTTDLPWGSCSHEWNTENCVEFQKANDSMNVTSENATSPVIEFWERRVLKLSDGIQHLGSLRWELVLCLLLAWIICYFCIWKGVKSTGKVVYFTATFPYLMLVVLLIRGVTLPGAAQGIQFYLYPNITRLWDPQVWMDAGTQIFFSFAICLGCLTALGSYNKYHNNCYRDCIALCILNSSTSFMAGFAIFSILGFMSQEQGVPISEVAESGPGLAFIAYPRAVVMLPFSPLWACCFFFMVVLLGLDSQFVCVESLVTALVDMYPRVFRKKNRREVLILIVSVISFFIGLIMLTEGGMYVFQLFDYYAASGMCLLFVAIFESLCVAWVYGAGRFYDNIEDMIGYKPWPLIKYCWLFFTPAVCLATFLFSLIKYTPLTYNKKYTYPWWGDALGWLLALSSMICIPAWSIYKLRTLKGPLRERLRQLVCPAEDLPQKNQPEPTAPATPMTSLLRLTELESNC

[2] = target: T2, GABA transporter 2 (Mus musculus, UniProt P31651); assay: Inhibition of mouse GAT2 expressed in HEK293 cells assessed as decrease in [3H]GABA uptake preincubated for 25 mins followed by [3H]GABA addition measured after 10 mins by liquid scintillation counter method
T2 sequence (P31651 whole entry): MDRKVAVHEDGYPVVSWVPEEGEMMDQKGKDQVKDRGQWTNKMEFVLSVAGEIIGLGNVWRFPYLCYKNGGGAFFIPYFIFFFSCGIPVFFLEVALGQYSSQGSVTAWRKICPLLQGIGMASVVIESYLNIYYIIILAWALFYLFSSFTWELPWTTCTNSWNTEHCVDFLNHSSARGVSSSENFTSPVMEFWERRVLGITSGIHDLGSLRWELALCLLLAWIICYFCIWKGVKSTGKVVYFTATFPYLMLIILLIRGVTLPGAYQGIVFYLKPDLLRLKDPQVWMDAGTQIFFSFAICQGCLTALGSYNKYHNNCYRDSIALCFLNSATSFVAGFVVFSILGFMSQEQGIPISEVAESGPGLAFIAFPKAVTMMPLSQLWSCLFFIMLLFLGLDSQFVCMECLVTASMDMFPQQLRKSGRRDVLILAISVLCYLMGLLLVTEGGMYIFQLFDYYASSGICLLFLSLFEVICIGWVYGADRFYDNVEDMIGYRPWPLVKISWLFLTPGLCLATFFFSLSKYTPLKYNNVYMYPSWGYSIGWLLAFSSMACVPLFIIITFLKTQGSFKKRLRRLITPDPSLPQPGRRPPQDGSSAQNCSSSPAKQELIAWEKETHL

[3] = target: Sodium- and chloride-dependent GABA transporter 1 (Mus musculus) (UniProt P31648); assay: Inhibition of mouse GAT1 expressed in HEK293 cells assessed as decrease in [3H]GABA uptake at 100 uM preincubated for 25 mins followed by [3H]GABA addition measured after 4 mins by liquid scintillation counter method
[4] = target: T3, GABA transporter 4 (Mus musculus) (UniProt P31650); assay: Inhibition of mouse GAT4 expressed in HEK293 cells assessed as decrease in [3H]GABA uptake at 100 uM preincubated for 25 mins followed by [3H]GABA addition measured after 4 mins by liquid scintillation counter method
T3 sequence (whole entry): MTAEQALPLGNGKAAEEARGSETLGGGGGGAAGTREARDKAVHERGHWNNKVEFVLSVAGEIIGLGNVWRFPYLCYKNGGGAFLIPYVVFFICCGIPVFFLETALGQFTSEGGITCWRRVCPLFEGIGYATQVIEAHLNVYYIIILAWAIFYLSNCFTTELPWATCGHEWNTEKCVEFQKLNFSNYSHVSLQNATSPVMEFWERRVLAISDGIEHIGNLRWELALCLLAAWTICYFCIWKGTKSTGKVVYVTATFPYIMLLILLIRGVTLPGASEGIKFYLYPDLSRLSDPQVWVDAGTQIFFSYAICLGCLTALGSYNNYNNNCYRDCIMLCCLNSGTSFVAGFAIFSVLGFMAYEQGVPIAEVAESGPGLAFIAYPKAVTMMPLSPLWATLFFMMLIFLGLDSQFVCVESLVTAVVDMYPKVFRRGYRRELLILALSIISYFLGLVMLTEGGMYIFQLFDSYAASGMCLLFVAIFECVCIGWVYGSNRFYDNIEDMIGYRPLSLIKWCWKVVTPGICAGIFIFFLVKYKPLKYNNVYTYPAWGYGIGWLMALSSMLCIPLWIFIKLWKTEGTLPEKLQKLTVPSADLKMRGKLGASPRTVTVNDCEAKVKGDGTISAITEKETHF

[5] = target: T4, GABA transporter 2 (Mus musculus) (UniProt P31651); assay: Inhibition of mouse GAT2 expressed in HEK293 cells assessed as decrease in [3H]GABA uptake at 100 uM preincubated for 25 mins followed by [3H]GABA addition measured after 10 mins by liquid scintillation counter method
T4 sequence (whole entry): T2 sequence (P31651 whole entry)

[6] = target: T5, GABA transporter 3 (Mus musculus, UniProt P31649); assay: Inhibition of mouse GAT3 expressed in HEK293 cells assessed as decrease in [3H]GABA uptake preincubated for 25 mins followed by [3H]GABA addition measured after 4 mins by liquid scintillation counter method
T5 sequence (P31649 whole entry): T1 sequence (whole entry)

[7] = target: T6, GABA transporter 4 (Mus musculus, UniProt P31650); assay: Inhibition of mouse GAT4 expressed in HEK293 cells assessed as decrease in [3H]GABA uptake preincubated for 25 mins followed by [3H]GABA addition measured after 4 mins by liquid scintillation counter method
T6 sequence (P31650 whole entry): T3 sequence (whole entry)

[8] = target: Sodium- and chloride-dependent GABA transporter 1 (Mus musculus, UniProt P31648); assay: Inhibition of mouse GAT1 expressed in HEK293 cells assessed as decrease in [3H]GABA uptake preincubated for 25 mins followed by [3H]GABA addition measured after 4 mins by liquid scintillation counter method
[9] = target: T7, Sodium- and chloride-dependent betaine transporter (Homo sapiens, UniProt P48065); assay: Inhibition of human BGT-1 expressed in thymidine kinase deficient mouse LM cells assessed as decrease in [3H]GABA uptake after 10 mins by scintillation counter method
T7 sequence (P48065 whole entry): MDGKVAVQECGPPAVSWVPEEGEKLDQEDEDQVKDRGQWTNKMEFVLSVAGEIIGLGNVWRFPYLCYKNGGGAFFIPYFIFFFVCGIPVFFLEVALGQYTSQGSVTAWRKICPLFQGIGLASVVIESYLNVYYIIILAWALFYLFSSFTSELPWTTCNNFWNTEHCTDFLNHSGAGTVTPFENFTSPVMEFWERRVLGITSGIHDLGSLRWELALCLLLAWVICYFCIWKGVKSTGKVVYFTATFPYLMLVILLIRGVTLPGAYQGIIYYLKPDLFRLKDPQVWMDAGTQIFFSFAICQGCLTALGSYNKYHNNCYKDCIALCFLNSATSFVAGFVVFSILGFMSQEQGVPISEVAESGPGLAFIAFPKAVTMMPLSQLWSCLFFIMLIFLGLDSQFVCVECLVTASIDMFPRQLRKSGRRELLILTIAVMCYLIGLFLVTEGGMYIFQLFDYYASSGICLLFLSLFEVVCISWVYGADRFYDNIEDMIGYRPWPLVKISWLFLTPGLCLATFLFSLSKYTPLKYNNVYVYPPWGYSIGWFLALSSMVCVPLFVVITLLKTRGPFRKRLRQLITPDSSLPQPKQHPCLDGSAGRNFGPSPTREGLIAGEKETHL

SMILES | inhibition [1] [%] | IC50 [2] [µM] | inhibition [3] [%] | inhibition [4] [%] | inhibition [5] [%] | IC50 [6] [µM] | IC50 [7] [µM] | IC50 [8] [µM] | IC50 [9] [µM]
COc1ccc(C2(OCCCn3cnc(CC(=O)O)c3)c3ccccc3-c3ccccc32)cc1 | 51.4 | 97.7 | 84.2 | 61.4 | – | – | – | – | –
Cc1ccsc1C(=CCCN1CCC[C@@H](C(=O)O)C1)c1sccc1C | 64 | – | – | 73 | 52 | – | – | – | –
COc1ccc(C2(OCCCCn3cnc(CC(=O)O)c3)c3ccccc3-c3ccccc32)cc1 | – | 24 | 64.9 | – | – | 39.8 | 49 | – | –
COc1ccc(C2(/C=C/Cn3cnc(CC(=O)O)c3)c3ccccc3-c3ccccc32)cc1 | – | – | 62.4 | – | 24.2 | 47.9 | 39.8 | – | –
O=C(O)/C=C/c1ncc[nH]1 | – | – | 73.7 | 47.2 | 77.3 | – | – | – | –
COc1ccc(C2(OCCn3cnc(CC(=O)O)c3)c3ccccc3-c3ccccc32)cc1 | 46.7 | – | 56.6 | 85.4 | 44 | – | – | – | –
COc1ccc(C2(OCCCCCn3cnc(CC(=O)O)c3)c3ccccc3-c3ccccc32)cc1 | – | 61.7 | 72.7 | – | – | 97.7 | 105 | – | –
COc1ccc(C2(OCCCCCn3cncc3CC(=O)O)c3ccccc3-c3ccccc32)cc1 | 68 | – | – | 77.4 | 38.5 | – | – | 79.4 | –
COc1ccc(C2(OCCCCn3cncc3CC(=O)O)c3ccccc3-c3ccccc32)cc1 | 41.7 | 22.9 | 70.8 | 59 | – | – | – | – | –
COc1ccc(C2(OCCCn3cncc3CC(=O)O)c3ccccc3-c3ccccc32)cc1 | – | – | 50.1 | 55.6 | 70.1 | 81.3 | – | – | –
COc1ccc(C2(/C=C/Cn3cncc3CC(=O)O)c3ccccc3-c3ccccc32)cc1 | – | 166 | – | – | – | 79.4 | 110 | 126 | –
O=C(O)CCc1nccn1CCC=C(c1ccccc1)c1ccccc1 | 48.1 | 58.9 | – | 53.7 | – | – | – | 74.1 | –
O=C(O)CCc1ncc[nH]1 | – | 525 | 62.8 | – | – | 28.8 | 309 | – | –
COc1ccc(C2(OCCN3CCCC(C(=O)O)C3)c3ccccc3-c3ccccc32)cc1 (stereo not drawn) | – | – | 73.1 | – | 66.3 | 93.3 | 30.2 | – | 27

The next lines start with the values.

inhibition [1] [%] | IC50 [2] [µM] | inhibition [3] [%] | inhibition [4] [%] | inhibition [5] [%] | IC50 [6] [µM] | IC50 [7] [µM] | IC50 [8] [µM] | IC50 [9] [µM] | SMILES
– | 37.2 | – | – | – | 15.8 | 13.2 | 70.8 | – | COc1ccc(C2(OC/C=C\Cn3ccnc3CCC(=O)O)c3ccccc3-c3ccccc32)cc1
– | 25.1 | – | – | – | 87.1 | 174 | 141 | – | COc1ccc(C2(OCCCCn3ccnc3CCC(=O)O)c3ccccc3-c3ccccc32)cc1
– | – | – | 50.7 | 48.3 | 28.2 | – | 37.2 | – | COc1ccc(C2(OCCOCCn3ccnc3CCC(=O)O)c3ccccc3-c3ccccc32)cc1
– | 12.6 | – | – | – | 23.4 | 29.5 | 11.7 | – | COc1ccc(C2(OCCCCCn3ccnc3CCC(=O)O)c3ccccc3-c3ccccc32)cc1
43.9 | 32.4 | 55.8 | 61.4 | – | – | – | – | – | COc1ccc(C2(OC/C=C/Cn3ccnc3CCC(=O)O)c3ccccc3-c3ccccc32)cc1
– | 25.1 | 48.5 | – | – | 35.5 | 43.7 | – | – | COc1ccc(C2(/C=C/Cn3ccnc3CCC(=O)O)c3ccccc3-c3ccccc32)cc1
50.8 | – | 67.2 | 46 | 57.9 | – | – | – | – | COc1ccc(C2(OCCn3cncc3CC(=O)O)c3ccccc3-c3ccccc32)cc1
– | 28.8 | – | – | – | – | 10.2 | 12.6 | – | COc1ccc(C2(OCCCCCn3ccnc3/C=C/C(=O)O)c3ccccc3-c3ccccc32)cc1
43.2 | – | 64.8 | 58.3 | 53 | – | – | – | – | COc1ccc(C2(OCCn3ccnc3CCC(=O)O)c3ccccc3-c3ccccc32)cc1
48.6 | – | – | 55.4 | 31.2 | – | – | 100 | – | COc1ccc(C2(OCCCn3ccnc3CCC(=O)O)c3ccccc3-c3ccccc32)cc1
– | 30.9 | – | – | – | 24.5 | 21.9 | 26.3 | – | COc1ccc(C2(/C=C/COCCn3ccnc3CCC(=O)O)c3ccccc3-c3ccccc32)cc1
